ChEMBL document CHEMBL5726104, “4,6-disubstituted aminopyrimidine derivatives have anti-HIV activity” (2017)
pIC50: −log10 of the molar value.

Target: Cyclin-dependent kinase 9 (Homo sapiens, UniProt P50750)
Experiment: Fluorescent Polarization Assay: The activity of the compounds described in the present invention can be determined by measuring the phosphorylation of a fluorescently-labeled peptide by human CDK9/CyclinT kinase complex by fluorescent polarization using a commercially available IMAP Screening Express Assay Kit (Molecular devices).Test compounds were diluted in 100% DMSO to 5 mM stock concentration, then further dilutions were made in H2O or 100% DMSO to desirable concentrations. Each reaction consisted of 5 nM enzyme: CDK9/CyclinT (Proqinase cat#0371-0345-1), 400 nM TAMRA-Rbtide (synthetic 15-mer peptide derived from human retinoblastoma tumor suppressor protein labeled with TAMRA dye, Genecust Europe), 12 μM ATP (=Kmapp, Sigma-Aldrich) and kinase buffer: 20 mM MOPS pH 7 (Sigma-Aldrich), 1 mM DTT (Sigma-Aldrich), 10 mM MgCl2 (Sigma-Aldrich), 0.01% Tween 20 (Sigma-Aldrich).For each reaction, 4 or 6 μl containing TAMRA-Rbtide, ATP and kianse buffer were combined with 2 μl diluted compound in H2O or 0.028 μl compound in 100% DMSO. The kinase reaction was started by the addition of 2 μl diluted enzyme.

Chain of Cyclin-dependent kinase 9 (P50750 whole entry): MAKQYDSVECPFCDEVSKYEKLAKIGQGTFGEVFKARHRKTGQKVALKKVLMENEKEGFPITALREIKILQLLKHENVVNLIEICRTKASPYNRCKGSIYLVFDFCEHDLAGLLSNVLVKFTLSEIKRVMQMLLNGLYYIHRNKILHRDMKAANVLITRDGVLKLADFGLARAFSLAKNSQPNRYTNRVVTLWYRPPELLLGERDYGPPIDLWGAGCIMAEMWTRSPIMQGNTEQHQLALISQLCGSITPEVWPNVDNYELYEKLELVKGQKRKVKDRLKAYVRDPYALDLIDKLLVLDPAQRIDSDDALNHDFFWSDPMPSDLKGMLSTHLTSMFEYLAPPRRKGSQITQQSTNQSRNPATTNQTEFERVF

`COc1ccc(Nc2cc(-c3ccccc3OCc3ccccc3)ncn2)cc1[N+](=O)[O-]` was tested. Which pIC50 did it give?
Its pIC50 is > 5.00.

`COc1ccc(Nc2cc(-c3ccccc3OC)ncn2)cc1NS(C)(=O)=O` was tested. Which pIC50 did it give?
The pIC50 was > 7.00.

`COc1cccc(-c2cc(Nc3ccc(OC)c([N+](=O)[O-])c3)ncn2)c1` was tested. Which pIC50 did it give?
Its pIC50 is < 5.00.

How did the pIC50 turn out when `COc1ccccc1-c1cc(Nc2ccc(N3CCN(C)CC3)c(CO)c2)ncn1` was run?
The pIC50 was > 7.00.
